# Data taken from patent publication US20240261274A1, “TREATMENT OF MYC-DRIVEN CANCERS WITH GSPT1 DEGRADERS” (MONTE ROSA THERAPEUTICS, INC., priority 2021, published 2024).
# Where two headings read alike, the source gives them in different places.
# Key:
# N-Myc = N-Myc total protein levels in NSCLC lines after Compound 345 (western blot); type: cell-based; conditions: NSCLC cancer lines; N-Myc not detectable in NCI-H2023
# Method: NCI-H1155 and NCI-H2023 were taken as representative of N-Myc high and low NSCLC. 12A: western blot analysis probing for GSPT1 and N-Myc following treatment with Compound 345 (as indicated). Tubulin was used as a loading control. N-Myc could not be detected by western blotting in the NCI-H2023 line. 12B: Single-sample gene set enrichment analysis (ssGSEA) results for a Myc target gene set at 6 hours (left) and 24 hours (right) after treatment. ssGSEA scores were normalized to DMSOs for each cell line and averaged for three replicates. Error bars denote+/−1 s.d. across replicates.
# GSPT1 = GSPT1 (Homo sapiens, UniProt P15170+Q96SW2); test: GSPT1 degradation by immunoblotting in cancer cell lines (Compound 345); type: cell-based; design: endogenous in cells; host or cells: MM1 S (ATCC CRL-2974); conditions: for GSPT1 degradation (immunoblots): 0.03, 0.3, 3 μM; for DC50: read-out: GSPT1 DC50
# Method: Two high N-Myc expressing NSCLC cell lines (NCI-H155 and ABC-1) and two low N-Myc expressing NSCLC cell lines (NCI-H2023 and NCI-H441) were treated with Compound 345 in culture. Cells were treated with increasing concentrations of the compound (0.0; 0.00064; 0.0032; 0.016; 0.08; 0.4; 2.0; 10; and 30 nM), lysates were prepared, SDS-PAGE and immunoblotting was performed, and transfer membranes were probed for GSPT1 and GAPDH as a loading control. Expression levels of GSPT1 detected in the immunoblots of this experiment are plotted against concentration of Compound 345 in FIG. 10B. DC50 values (the concentration of the compound at which the target protein is degraded by 50%) were estimated for each cell line. NCI-H155, DC50=14 nM; ABC-1, DC50=76 nM; NCI-H2023, DC50=18 nM; NCI-H441, DC50=8.7 nM. Estimated Dmax for all cell lines was 95%-99%.
# GSPT1 and N-Myc western blotting analyses from cell line lysates: NCI-H1155, NCI-H2023, NCI-H441, ABC-1, NCI-H1836, NCI-H1876, MM.1S, DOHH2 and WSU-DLCLC2 cells were typically seeded in a 6 or 12 well plate (0.3 to 1.0×10^6 cells/mL) and incubated overnight. Compound 345 was dissolved in DMSO to obtain a 10 mM stock solution, and aliquots were stored at −20° C. The next day, cells were treated with various concentrations of Compound 345 or DMSO (Sigma, D2650) using a HP D300 dispenser (Tecan). Controls were pretreated for 30 minutes with Bortezomib (0.2 μM). Cells were washed with ice cold PBS at the indicated timepoints post addition of Compound 345 and lysed with 50 to 100 μL lysis buffer containing RIPA buffer (Invitrogen, R0278) and a mix of protease inhibitor cocktail (Sigma, P8340, 5726 and 0044). Protein concentration was assessed using the BCA assay (Pierce™ Rapid Gold BCA Protein Assay Kit, A53227) and 10 μg of protein was typically loaded onto a TGX Stain free 4-20% Criterion gel (Biorad, 5678095) for separation. Gel was transferred onto a 0.2 μm nitrocellulose membrane using the TransBlot transfer system (Biorad). Membranes were blocked in Every Blot Blocking Buffer (Biorad, 12010020) and incubated overnight at 4° C. with either of the following primary antibody: anti-GSPT1 diluted 1/5000th (Sigma, HPA052488), anti-N-Myc clone D1V2A diluted 1/1000th (Cell Signaling Technology, 84406), anti-α-Tubulin clone DM1A Alexa Fluor® 488 Conjugated (Cell Signaling Technology, Cat. No. CST8058) or anti-GAPDH Alexa647-coupled diluted 1/2500th (Invitrogen, MA5-15738-A647). The next day, a secondary HRP-conjugated goat anti-rabbit secondary antibody (Invitrogen, A16110) was used to allow detection of unlabelled primary antibodies. Membranes were imaged on a ChemiDoc imager (Biorad) using either fluorescence or chemiluminescence detection. Images were quantified using the Image Lab Software Version 6.1 (Biorad). Images were adjusted for alignment and contrast. Columns were manually defined to enable the band detection by the software. Band intensities, or densitometries, were exported to Excel (Microsoft® Excel® for Microsoft 365 MSO Version 2110) for further analysis. Briefly, band intensity for the protein of interest was normalized to the DMSO control, before being normalized to the GAPDH band intensity for the same column. Normalised data was transferred to GraphPad Prism 8.1.2 (GraphPad) and fitted using a four parameters models ([Inhibitor] vs. response—Variable slope) defined by the following equation: Y=Dmax+(Top−Dmax)/(1+(DC50/X)^HillSlope). Key degradation parameters reported included DC50 (concentration at which the GSPT1 total protein levels are reduced by 50%) and Dmax (maximum fractional amount of protein degraded).
# [1] = MM1 S multiple myeloma cells, 24 hours
# Chain of GSPT1 (P15170 whole entry): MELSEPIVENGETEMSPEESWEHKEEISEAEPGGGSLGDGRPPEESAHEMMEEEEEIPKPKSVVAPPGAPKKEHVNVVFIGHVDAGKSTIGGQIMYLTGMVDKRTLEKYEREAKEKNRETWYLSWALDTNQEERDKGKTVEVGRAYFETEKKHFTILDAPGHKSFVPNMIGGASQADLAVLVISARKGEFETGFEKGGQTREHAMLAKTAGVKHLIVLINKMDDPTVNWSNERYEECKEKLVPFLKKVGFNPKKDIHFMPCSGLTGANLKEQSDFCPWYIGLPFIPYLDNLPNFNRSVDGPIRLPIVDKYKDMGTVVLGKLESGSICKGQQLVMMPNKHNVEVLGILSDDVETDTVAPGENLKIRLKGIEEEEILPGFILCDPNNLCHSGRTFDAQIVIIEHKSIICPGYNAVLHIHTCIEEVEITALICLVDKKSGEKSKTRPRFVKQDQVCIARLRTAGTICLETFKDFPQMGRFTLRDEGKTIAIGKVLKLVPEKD
# Chain of GSPT1 (Q96SW2 whole entry): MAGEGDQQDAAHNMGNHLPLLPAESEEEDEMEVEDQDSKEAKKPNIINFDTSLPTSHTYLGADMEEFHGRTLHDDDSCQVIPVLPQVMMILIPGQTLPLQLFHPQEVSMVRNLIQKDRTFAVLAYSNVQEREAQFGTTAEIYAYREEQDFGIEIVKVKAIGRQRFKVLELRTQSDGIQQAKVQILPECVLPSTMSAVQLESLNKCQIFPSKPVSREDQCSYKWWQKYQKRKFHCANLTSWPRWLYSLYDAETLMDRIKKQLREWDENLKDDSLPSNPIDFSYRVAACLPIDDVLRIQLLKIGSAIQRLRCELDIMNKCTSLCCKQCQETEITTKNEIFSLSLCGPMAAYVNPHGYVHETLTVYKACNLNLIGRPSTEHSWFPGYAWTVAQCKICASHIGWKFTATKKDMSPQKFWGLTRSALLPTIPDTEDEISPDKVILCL
# Chain of GSPT1 (Q16531 whole entry partner): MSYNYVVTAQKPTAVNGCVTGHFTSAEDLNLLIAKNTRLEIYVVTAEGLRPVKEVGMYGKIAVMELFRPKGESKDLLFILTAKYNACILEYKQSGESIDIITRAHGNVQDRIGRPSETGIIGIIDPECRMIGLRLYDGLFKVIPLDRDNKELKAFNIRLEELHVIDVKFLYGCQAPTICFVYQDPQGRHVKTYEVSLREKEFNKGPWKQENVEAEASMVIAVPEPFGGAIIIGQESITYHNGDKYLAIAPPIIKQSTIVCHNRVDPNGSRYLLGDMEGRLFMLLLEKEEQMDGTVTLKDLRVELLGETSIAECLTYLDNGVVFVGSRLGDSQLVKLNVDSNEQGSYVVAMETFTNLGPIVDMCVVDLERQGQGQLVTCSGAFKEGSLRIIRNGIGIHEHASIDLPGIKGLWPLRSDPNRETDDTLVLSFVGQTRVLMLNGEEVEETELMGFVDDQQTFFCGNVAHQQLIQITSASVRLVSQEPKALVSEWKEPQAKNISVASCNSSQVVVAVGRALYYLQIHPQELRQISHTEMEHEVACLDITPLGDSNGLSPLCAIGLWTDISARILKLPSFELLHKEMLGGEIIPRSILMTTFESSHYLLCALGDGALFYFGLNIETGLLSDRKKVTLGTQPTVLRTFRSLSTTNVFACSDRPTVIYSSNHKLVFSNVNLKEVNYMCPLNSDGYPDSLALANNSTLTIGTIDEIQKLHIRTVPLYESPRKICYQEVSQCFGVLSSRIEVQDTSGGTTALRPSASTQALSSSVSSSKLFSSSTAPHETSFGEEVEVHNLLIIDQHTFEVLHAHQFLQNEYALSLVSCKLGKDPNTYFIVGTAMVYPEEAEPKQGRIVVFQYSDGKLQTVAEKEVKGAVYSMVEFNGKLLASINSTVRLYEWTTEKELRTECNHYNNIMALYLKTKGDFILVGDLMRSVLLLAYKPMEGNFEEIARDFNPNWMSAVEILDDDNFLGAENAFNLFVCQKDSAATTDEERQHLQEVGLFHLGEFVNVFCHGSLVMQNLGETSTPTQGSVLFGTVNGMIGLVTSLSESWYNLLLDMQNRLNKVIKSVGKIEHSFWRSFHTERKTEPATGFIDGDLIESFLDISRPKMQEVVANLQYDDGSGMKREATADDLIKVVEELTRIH
smiles,measurement,setting,value
"O=C1CCC(N2Cc3ccc(COC(=O)Nc4cc(OC(F)(F)F)ccc4F)cc3C2=O)C(=O)N1 (stereo not drawn) [Compound 345, (2-(2,6-dioxopiperidin-3-yl)-3-oxoisoindolin-5-yl)methyl(2-fluoro-5-(trifluoromethoxy)phenyl)carbamate]","N-Myc total protein levels, timecourse",N-Myc,downregulation of N-Myc total protein levels
same,Dmax,GSPT1; [1],100%
same,GSPT1 degradation (immunoblots),"GSPT1; NCI-H155 and NCI-H2023, 0, 2, 6 hours",efficient degradation of GSPT1 in a time and dose dependent manner
same,GSPT1 degradation (immunoblots),"GSPT1; SCLC cell lines NCI-H1836 and NCI-H1876, up to 24 hours",efficient degradation of GSPT1 in SCLC cell lines in a time and dose dependent manner
same,Dmax,"GSPT1; WSUDLCL2, WSU-DLCL2 triple hit lymphoma cells, 24 hours",100%
same,Dmax,"GSPT1; all cell lines (NCI-H155, ABC-1, NCI-H2023, NCI-H441)",95 to 99%
same,DC50,GSPT1; ABC-1 (high N-Myc NSCLC),76 nM
same,DC50,GSPT1; [1],6 nM
same,DC50,GSPT1; NCI-H155 (high N-Myc NSCLC),14 nM
same,DC50,GSPT1; NCI-H441 (low N-Myc NSCLC),8.7 nM
same,DC50,GSPT1; NCI-H2023 (low N-Myc NSCLC),18 nM
same,DC50,"GSPT1; WSU-DLCL2 triple hit lymphoma cells, 24 hours",24 nM
